Key:
MPO heme ring = target: T1, MPO heme ring (Homo sapiens, UniProt P05164); test: MPO heme ring oxidative degradation; type: biochemical; settings: peptides 3.0 mM, H2O2, absorbance 300-550 nm
T1 construct: purchased Lee BioSolutions (Maryland Heights, MO)
T1 sequence (P05164 49-745): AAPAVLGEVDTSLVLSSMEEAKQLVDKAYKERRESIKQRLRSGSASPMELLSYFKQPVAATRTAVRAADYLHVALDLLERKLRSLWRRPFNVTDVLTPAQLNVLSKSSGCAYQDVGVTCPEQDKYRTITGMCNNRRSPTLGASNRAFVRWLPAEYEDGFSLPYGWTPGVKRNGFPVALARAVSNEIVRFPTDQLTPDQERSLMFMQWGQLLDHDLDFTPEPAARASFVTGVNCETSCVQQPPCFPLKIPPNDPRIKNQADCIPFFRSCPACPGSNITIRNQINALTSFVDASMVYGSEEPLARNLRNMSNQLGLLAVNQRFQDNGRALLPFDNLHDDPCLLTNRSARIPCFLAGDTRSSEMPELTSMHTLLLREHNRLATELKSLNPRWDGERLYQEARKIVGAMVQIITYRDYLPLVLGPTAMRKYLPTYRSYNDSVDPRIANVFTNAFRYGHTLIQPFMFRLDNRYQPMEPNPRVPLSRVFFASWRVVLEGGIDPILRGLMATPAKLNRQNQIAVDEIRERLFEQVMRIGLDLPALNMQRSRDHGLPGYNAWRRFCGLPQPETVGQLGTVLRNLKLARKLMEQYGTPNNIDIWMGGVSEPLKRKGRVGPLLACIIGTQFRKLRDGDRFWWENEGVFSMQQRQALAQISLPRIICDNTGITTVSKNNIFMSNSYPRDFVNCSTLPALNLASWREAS
Protocol: In a 96 well plate, 0.025 ml of 1.7 mg/ml MPO was combined with 0.00125 ml of 0.5% H2O2 and 3 mM PIC1 or sarcosine variant peptides in a total volume of 0.125 ml PBS and left to incubate at room temperature for 2 minutes. Using a 96 well plate reader, the wells were scanned for absorbance from 300–550 nm to generate curves reflecting the iron state in the MPO heme ring, as previously reported.
We then evaluated the ability of the variants to prevent degradation of the heme ring in the MPO molecule. […] This can be evaluated via spectrometric measurements of absorption of wavelengths from 300–550 nm. Absorption measurements were made over this spectrum for all variants (Fig 3A–3H). […] The heme ring preservation for these two variants was greater than that for the parent compound, PA-dPEG24.
Fig 3 Sarcosine variant protection of MPO heme ring from oxidative degradation. Absorbance spectra for the heme ring is shown in the absence of hydrogen peroxide (MPO) in red, in the presence of hydrogen peroxide (MPO+H2O2) in black, in the presence of peptide in blue, and in the presence of hydrogen peroxide and peptide together in green. […] B-H) Peptides A2 – C9,10 are denoted in the legends. Peptides were tested at a concentration of 3.0 mM.

[1] = test system: antibody-initiated complement activation (type O sera + type AB red blood cells); test: ABO incompatibility hemolytic assay (CH50-type, ex vivo); type: cell-based, human; settings: peptides 1.8 mM
Protocol: For hemolytic complement assays, human red blood cells (RBCs) from type AB donors were purified, washed and standardized to 1 × 10^9 cells/ml, as previously described. Human sera from type O donors at a 20% final concentration was combined with 1 mM PIC1 or sarcosine variant peptides and the volume was brought up to 0.15 ml with GVBS^++ and 0.5 ml RBCs. For factor B-depleted sera hemolytic assays, a final of 0.005% factor B depleted sera was incubated with 1 mM PIC1 or sarcosine variant peptides with 0.1 ml antibody-sensitized sheep red blood cells (EA) in a final volume of 0.75 ml GVBS^++. The samples were incubated for 1 hour at 37 °C and then 1.0 ml of GVBS^-—was added to the factor B-depleted samples to stop the reaction. The samples were spun at 3,000 rpm for 5 minutes and the supernatant was collected and read at 412 nm. Values are represented as a percent of the positive control, which consists of human O sera and AB red blood cells in GVBS^++ buffer.
In order to evaluate the extent to which the peptide variants inhibit antibody-initiated complement activation, we tested them in two hemolytic assays including an ABO incompatibility ex vivo assay (Fig 1A) and a classical pathway CH50-type assay in factor B-depleted sera (Fig 1B). In the ABO incompatibility hemolytic assay, purified erythrocytes from a ‘type AB+’ donor are incubated with sera from a ‘type O’ subject containing anti-A and anti-B antibodies; peptides were tested at 1.8 mM. […] We then performed a CH50-type hemolytic assay, with antibody-sensitized sheep erythrocytes, isolating the classical pathway by utilizing factor B-depleted sera; peptides were tested at 0.4 mM.
Fig 1 Sarcosine variant inhibition of complement activation in hemolytic assays and C1q binding. A) Inhibition of ABO incompatibility hemolysis in a CH50-type assay. Peptides are at a final concentration of 1.8 mM. […] Data are the means of n = 4 independent experiments + SEM. B) Inhibition of classical complement pathway-mediated hemolysis in factor B-depleted sera in a CH50-type assay. Peptides are at a final concentration of 0.4 mM. Data are the means of n = 4 independent experiments + SEM. C) Binding of increasing concentrations of sarcosine variants to purified C1q in an ELISA-type assay. Data are the means of n = 3 independent experiments ± SEM. D) Half-maximal binding concentrations were calculated for each peptide’s binding curve.

[2] = test system: purified human neutrophils; test: NETosis assay, free DNA by PicoGreen; type: cell-based; settings: Average of n = 3; peptide 2 mM
Protocol: NETosis assays with immune complexes were performed as previously described. Briefly, normal human serum was stimulated with ovalbumin-antiovalbumin immune complexes in GVBS^++ for 30 minutes at 37 °C. This mixture along with 0.05% H2O2 was then added to purified human neutrophils resuspended in RPMI with or without sarcosine variants (2 mM), allowing NETosis to occur. Quantitation of free DNA released from the neutrophils was performed using PicoGreen. Slides were stained with DAPI (Southern Biotech, Birmingham, AL) and the following antibodies, mouse anti-elastase (Invitrogen, Carlsbad, CA) was used with the secondary goat anti-mouse Alexa Fluor 568 (Novus Biologicals, Centennial, CO) and rabbit anti-histone H3 (Abcam, Cambridge MA) with goat anti-rabbit Alexa Fluor 488 (Novus Biologicals) to visualize formation of NETs which were imaged with fluorescence microscopy with an Olympus BX53 microscope.
In this assay purified human neutrophils are stimulated with normal human serum activated with ovalbumin-antiovalbumin immune complexes and hydrogen peroxide. Free DNA expressed from the neutrophils is then measured in a PicoGreen assay.
Fig 5 Sarcosine variant inhibition of NET formation. Fluorescence microscopy images of NET formation after neutrophil stimulation with immune complexes (IC) and hydrogen peroxide (H2O2) compared with neutrophil only control. Variant I8 inhibition of NET formation is shown in the third row. Histones are probed with anti-histone antibody (αhistone), neutrophil elastase is probed with anti-neutrophil elastase (αNE) and DNA is stained with DAPI. Representative images are shown. […] Purified human neutrophils were stimulated with 2% normal human sera pre-incubated with ovalbumin-antiovalbumin immune complexes, and 0.05% H2O2. Sarcosine peptides and PIC1 were added to the sera to a final concentration of 2 mM. Data are the means of n = 3 independent experiments + SEM.

[3] = Peptide solubility in water
Protocol: (PA) (Table 1) were synthesized by New England Peptide (Gardner, MA) to >90% purity. Sarcosine variants and PEG were dissolved in water and the pH was adjusted with NaOH. PA was dissolved in DMSO and then brought up to the final concentration with water resulting in 30% DMSO and pH adjusted. Antibody sensitized sheep erythrocytes (EA), purified C1q and factor B-depleted human sera were purchased from Complement Technology (Tyler, TX). Purified myeloperoxidase was purchased from Lee BioSolutions (Maryland Heights, MO) and tetramethylbenzidine (TMB) and PicoGreen were purchased from Thermo Fisher (Waltham MA).
(PA), peptide derivatives were synthesized with sarcosine residues substituted at all 15 positions, included a peptide in which the vicinal cysteines at positions 9 and 10 (C9,C10) were replaced with a single sarcosine residue (Table 1).

[4] = Total Antioxidant Capacity (TAC) assay
Protocol: The TAC (Total Antioxidant Capacity) Assay (Cell Biolabs, Inc, San Diego, CA) was used to measure the antioxidant capacity of the sarcosine variants based on the reduction of copper (II) to copper (I). The kit protocol was performed as recommended.
Antioxidant activity is measured in copper reducing equivalents (CRE). Peptides were tested over a range of concentrations from 0.03–0.25 mM then compared to the standard. Data are the means of n = 3 independent experiments + SEM.

CC[C@H](C)[C@H](N)C(=O)N[C@@H](C)C(=O)N[C@@H](CC(C)C)C(=O)N[C@H](C(=O)N[C@@H](CC(C)C)C(=O)N[C@@H](CCC(=O)O)C(=O)N1CCC[C@H]1C(=O)N[C@H](C(=O)N(C)CC(=O)N[C@@H](CS)C(=O)N[C@@H](CCC(N)=O)C(=O)N[C@@H](CCC(=O)O)C(=O)N[C@@H](CCCNC(=N)N)C(=O)N[C@@H](C)C(=O)N[C@@H](C)C(=O)O)[C@@H](C)CC)[C@@H](C)CC [C9]
protection of MPO heme ring from degradation (in words) (MPO heme ring): near perfect preservation
ABO hemolysis ([1]; Avg of n = 4, concentration basis of PIC1 not stated): 18.25 % of Control
inhibition of ABO incompatible hemolysis (in words) [1]: to a greater extent than did the PA-dPEG24
PICO green - NETs, free DNA release [2]: 38
solubility in water (in words) [3]: soluble in water
TAC assay, antioxidant activity ([4]; Avg of n = 3): 845.83 copper reducing equivalents (CRE)
antioxidant capacity (in words) ([4]; TAC assay): approximately half of the antioxidant capacity as PA-dPEG24

Source: publication PMC6938345, “Inhibition of complement activation, myeloperoxidase, NET formation and oxidant activity by PIC1 peptide variants” (PLoS ONE, 2019)
